# Key:
# [1] = test system: cytidine deaminases; conditions: enzymatic degradation by cytidine deaminases, particularly in the small intestine; cited from earlier work
# [2] = Maximum degradation in the infusion estimated for selected infusion schedules; type: physicochemical; conditions: 0.1-1 mg/mL; for Average degradation rate: estimate assuming linearity
# Method: Table 3 summarizes the maximum degradation estimated using a series of infusion schedules (S1 through S7 as denoted in the table) selected to establish degradation limits and acceptable shelf life of the diluted solution. The average degradation rate used for calculations is based on the assumption that degradation in solutions is linear and the slope between the initial and the terminal time point is considered to be worst case. If the solution is prepared appropriately and used immediately, degradation would be minimal. It is recommended that a diluted infusion should not be stored longer than seven hours in a refrigerator for a three hour infusion or longer than 10 hours in a refrigerator for a two hour infusion in order to stay within the 10% maximum limit allowed for degradation.
smiles,measurement,setting,value
"Nc1ncn([C@H]2C[C@H](O)[C@@H](CO)O2)c(=O)n1 [Decitabine, 4-amino-1-(2-deoxy-β-D-erythro-pentofuranosyl)-1,3,5-triazin-2(1H)-one]",oral bioavailability,[1],reduced oral bioavailability
same,Average degradation rate,[2]; @ 4° C.,0.40 %/hr
same,Average degradation rate,[2]; @ Room Temperature,2.44 %/hr
same,Maximum degradation,[2]; S1 (6 hr stored @4° C. + 3 hr @ RT during infusion),9.72 % peak area
same,Maximum degradation,[2]; S2 (7 hr stored @4° C. + 3 hr @ RT during infusion),10.12 % peak area
same,Maximum degradation,[2]; S3 (7 hr stored @4° C. + 2 hr @ RT during infusion),7.68 % peak area
same,Maximum degradation,[2]; S4 (8 hr stored @4° C. + 3 hr @ RT during infusion),10.52 % peak area
same,Maximum degradation,[2]; S5 (8 hr stored @4° C. + 2 hr @ RT during infusion),8.08 % peak area
same,Maximum degradation,[2]; S6 (9 hr stored @4° C. + 2 hr @ RT during infusion),8.48 % peak area
same,Maximum degradation,[2]; S7 (10 hr stored @4° C. + 2 hr @ RT during infusion),8.88 % peak area
